#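 Following 48 hours of exposure in 96-well plates, responses at five concentrations were used to interpolate endpoints linearly. GI50 = concentration required for 50% inhibition of growth.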 Calls of active or inactive are those of the source. Cut-off read from the data, not from the text of the source: active = GI50 up to about 1.1 µM and inactive = higher.
# Experiments:
# Assay in all cases: inhibition of tumour cell growth, NCI panel, 48 h
# SR = tested on: SR
# NCI-H460 = tested on: NCI-H460
# NCI-H226 = tested on: NCI-H226
# TK-10 = tested on: TK-10
# DU-145 = tested on: DU-145
# U-251 = tested on: U-251
# MCF7 = tested on: MCF7
# CCRF-CEM = tested on: CCRF-CEM
# SK-MEL-5 = tested on: SK-MEL-5
# SF-268 = tested on: SF-268
# NCI-H522 = tested on: NCI-H522
# NCI/ADR-RES = tested on: NCI/ADR-RES
# HCC 2998 = tested on: HCC 2998
# UO-31 = tested on: UO-31
# A498 = tested on: A498
# OVCAR-3 = tested on: OVCAR-3
# UACC-257 = tested on: UACC-257
# T47D = tested on: T47D
# HT-29 = tested on: HT-29
# Hs-578T = tested on: Hs-578T
# MOLT-4 = tested on: MOLT-4
# K562 = tested on: K562
# ACHN = tested on: ACHN
# RPMI-8226 = tested on: RPMI-8226
# MDA-N = tested on: MDA-N
# 786-0 = tested on: 786-0
# SF-539 = tested on: SF-539
# OVCAR-8 = tested on: OVCAR-8
# OVCAR-4 = tested on: OVCAR-4
# HCT-116 = tested on: HCT-116
# Malme-3M = tested on: Malme-3M
# SK-MEL-2 = tested on: SK-MEL-2
# UACC-62 = tested on: UACC-62
# SNB-75 = tested on: SNB-75
# BT-549 = tested on: BT-549
# RXF 393 = tested on: RXF 393
# HL-60 = tested on: HL-60
# M14 = tested on: M14
# COLO 205 = tested on: COLO 205
# OVCAR-5 = tested on: OVCAR-5
# SK-OV-3 = tested on: SK-OV-3
# MDA-MB-435 = tested on: MDA-MB-435
# A549 = tested on: A549
# HOP-62 = tested on: HOP-62
# SN12C = tested on: SN12C
# IGROV-1 = tested on: IGROV-1
# PC-3 = tested on: PC-3
# SF-295 = tested on: SF-295
# NCI-H23 = tested on: NCI-H23
# EKVX = tested on: EKVX
# SK-MEL-28 = tested on: SK-MEL-28
# KM12 = tested on: KM12
# MDA-MB-231 = tested on: MDA-MB-231
# CAKI-1 = tested on: CAKI-1
# HOP-92 = tested on: HOP-92
# HCT-15 = tested on: HCT-15
# SW-620 = tested on: SW-620
# SNB-19 = tested on: SNB-19
# LOX IMVI = tested on: LOX IMVI
# KM-20L2 = tested on: KM-20L2
# LXFL 529 = tested on: LXFL 529
# DMS-273 = tested on: DMS-273
# DLD-1 = tested on: DLD-1
# M19-MEL = tested on: M19-MEL
compound,measurement,setting,value
O=[N+]([O-])c1ccc(Sc2c3ccccc3nc3ccccc23)nc1,GI50,SR,2.47 µM (inactive)
same,GI50,NCI-H460,23.2 µM (inactive)
same,GI50,NCI-H226,16.3 µM (inactive)
same,GI50,TK-10,2.96 µM (inactive)
same,GI50,DU-145,6.93 µM (inactive)
same,GI50,U-251,24.3 µM (inactive)
same,GI50,MCF7,3.79 µM (inactive)
same,GI50,CCRF-CEM,2.51 µM (inactive)
same,GI50,SK-MEL-5,16.7 µM (inactive)
same,GI50,SF-268,8.71 µM (inactive)
same,GI50,NCI-H522,2.73 µM (inactive)
same,GI50,NCI/ADR-RES,19 µM (inactive)
same,GI50,HCC 2998,15.7 µM (inactive)
same,GI50,UO-31,5.08 µM (inactive)
same,GI50,A498,18.5 µM (inactive)
same,GI50,OVCAR-3,5.74 µM (inactive)
same,GI50,UACC-257,7.06 µM (inactive)
same,GI50,T47D,2.57 µM (inactive)
same,GI50,HT-29,3.06 µM (inactive)
same,GI50,Hs-578T,19.4 µM (inactive)
same,GI50,MOLT-4,2.75 µM (inactive)
same,GI50,K562,2.08 µM (inactive)
same,GI50,ACHN,7.87 µM (inactive)
same,GI50,RPMI-8226,2.21 µM (inactive)
same,GI50,MDA-N,5.12 µM (inactive)
same,GI50,786-0,2.2 µM (inactive)
same,GI50,SF-539,16.7 µM (inactive)
same,GI50,OVCAR-8,22 µM (inactive)
same,GI50,OVCAR-4,4.69 µM (inactive)
same,GI50,HCT-116,2.09 µM (inactive)
same,GI50,Malme-3M,2.11 µM (inactive)
same,GI50,SK-MEL-2,20.4 µM (inactive)
same,GI50,UACC-62,15.3 µM (inactive)
same,GI50,SNB-75,15.6 µM (inactive)
same,GI50,BT-549,14.1 µM (inactive)
same,GI50,RXF 393,3.28 µM (inactive)
same,GI50,HL-60,4.48 µM (inactive)
same,GI50,M14,3.22 µM (inactive)
same,GI50,COLO 205,2.37 µM (inactive)
same,GI50,OVCAR-5,18.6 µM (inactive)
same,GI50,SK-OV-3,13.2 µM (inactive)
same,GI50,MDA-MB-435,8.55 µM (inactive)
same,GI50,A549,26.2 µM (inactive)
same,GI50,HOP-62,23.3 µM (inactive)
same,GI50,SN12C,13.2 µM (inactive)
same,GI50,IGROV-1,16.7 µM (inactive)
same,GI50,PC-3,14.8 µM (inactive)
same,GI50,SF-295,26.1 µM (inactive)
same,GI50,NCI-H23,6.84 µM (inactive)
same,GI50,EKVX,17 µM (inactive)
same,GI50,SK-MEL-28,4.75 µM (inactive)
same,GI50,KM12,23.8 µM (inactive)
same,GI50,MDA-MB-231,6.14 µM (inactive)
same,GI50,CAKI-1,4.88 µM (inactive)
same,GI50,HOP-92,1.95 µM (inactive)
same,GI50,HCT-15,4 µM
same,GI50,SW-620,2.08 µM (inactive)
same,GI50,SNB-19,18.4 µM (inactive)
same,GI50,LOX IMVI,2.24 µM (inactive)
Cc1ccc(C(N)=O)cc1/N=N/N(C)C,GI50,NCI-H460,> 100 µM (inactive)
same,GI50,TK-10,> 100 µM (inactive)
same,GI50,KM-20L2,> 100 µM (inactive)
same,GI50,U-251,> 100 µM (inactive)
same,GI50,SK-MEL-5,> 100 µM (inactive)
same,GI50,SF-268,> 100 µM (inactive)
same,GI50,NCI-H522,> 100 µM (inactive)
same,GI50,HCC 2998,> 100 µM (inactive)
same,GI50,LXFL 529,> 100 µM (inactive)
same,GI50,UO-31,> 100 µM (inactive)
same,GI50,OVCAR-3,> 100 µM (inactive)
same,GI50,UACC-257,> 100 µM (inactive)
same,GI50,HT-29,> 100 µM (inactive)
same,GI50,ACHN,> 100 µM (inactive)
same,GI50,786-0,> 100 µM (inactive)
same,GI50,OVCAR-8,> 100 µM (inactive)
same,GI50,OVCAR-4,> 100 µM (inactive)
same,GI50,SK-MEL-2,> 100 µM (inactive)
same,GI50,UACC-62,> 100 µM (inactive)
same,GI50,DMS-273,> 100 µM (inactive)
same,GI50,M14,> 100 µM (inactive)
same,GI50,COLO 205,> 100 µM (inactive)
same,GI50,SK-OV-3,> 100 µM (inactive)
same,GI50,A549,> 100 µM (inactive)
same,GI50,DLD-1,> 100 µM (inactive)
same,GI50,HOP-62,> 100 µM (inactive)
same,GI50,SN12C,> 100 µM (inactive)
same,GI50,IGROV-1,> 100 µM (inactive)
same,GI50,SF-295,> 100 µM (inactive)
same,GI50,NCI-H23,> 100 µM (inactive)
same,GI50,EKVX,> 100 µM (inactive)
same,GI50,SK-MEL-28,> 100 µM (inactive)
same,GI50,M19-MEL,> 100 µM (inactive)
same,GI50,KM12,> 100 µM (inactive)
same,GI50,CAKI-1,> 100 µM (inactive)
same,GI50,HOP-92,> 100 µM (inactive)
same,GI50,HCT-15,> 100 µM
same,GI50,SW-620,> 100 µM (inactive)
same,GI50,SNB-19,> 100 µM (inactive)
same,GI50,LOX IMVI,> 100 µM (inactive)
